Source: a melting point compilation (Tetko et al.; mined from patent text by program, amines drawn as free bases though some values may be those of a salt)

Row | SMILES | melting point
1 | O=c1[nH]c2ccccc2c2nc(-c3ccco3)nn12 | 338 to 343 °C
2 | O=C1CCC(N2C(=O)c3cccc(CNC(=O)c4cncnc4)c3C2=O)C(=O)N1 (configuration not stated) | > 260 °C
3 | [N-]=[N+]=NCc1ccc2nc[nH]c2c1 | 110 to 114 °C
4 | Nc1ccc(Oc2ccc(C34CC5CC(C3)CC(c3ccc(Oc6ccc(N)c(O)c6)cc3)(C5)C4)cc2)cc1O | 166 to 169 °C
5 | Cc1cc(O)c(C(=O)CCC(F)(F)F)c(=O)o1 | 104 °C
6 | O=C(C[C@H](NC(=O)OCc1ccccc1)C(=O)Nc1cc(Cc2n[nH]c(=O)c3ccccc23)ccc1F)OCc1ccccc1 | 76 to 80 °C
7 | Cc1ccc(-c2cc(C(F)(F)F)n3ncc(-c4ccncc4)c3n2)cc1C(F)(F)F | 218 °C
8 | CC(=O)NC1(c2ccc(C(C)O)cc2)CC1 (configuration not stated) | 114 to 116 °C
9 | Cc1cc(C#N)cc(C(=O)c2c(C(C)C)c(=O)[nH]c(=O)n2CC(C)C)c1 | 200 to 201 °C
10 | N#CCc1cc(O)cc2cc(-c3ccc(O)cc3)oc12 | 128 to 130 °C
11 | COC(=O)CC[C@H](NC(=O)c1ccc(C#Cc2cnc3nc(NC(=O)C(C)(C)C)nc(O)c3c2)s1)C(=O)OC | 228 to 230 °C
12 | COCc1nc(C(C)(C)O)c(C(=O)O)n1Cc1ccc(-c2ccccc2C(=O)O)cc1 | 164 to 165 °C
13 | COC(=O)c1cccc(-c2nc(C(N)=O)c3[nH]c(=O)n(-c4ccccc4OC)c3n2)c1 | 265 to 266 °C
14 | CC(=O)NC[C@H]1CN(c2ccc(N3CCN(C(=O)CCC(=O)c4ccc(CN(C)C)cc4)CC3)c(F)c2)C(=O)O1 | 190 to 192 °C
15 | OCC12CO[C@@H](c3ccc(F)cc3)N1[C@H](c1ccc(F)cc1)OC2 | 115 °C
16 | O=C(c1ccc(F)cc1)C1CCN(C2Sc3ccccc3NC2=O)CC1 (configuration not stated) | 218 °C
17 | NNC(=O)c1nn(Cc2ccc(Cl)cc2Cl)c2ccccc12 | 161 to 162 °C
18 | COc1cc(COc2nn(-c3ccccc3)cc2C=C(C#N)C#N)ccc1OCc1nc(-c2ccco2)oc1C | 190 to 191 °C
19 | N#CC=C(Cc1ccc2c(c1)OCO2)Nc1ccccc1 | 150 to 151 °C
20 | Cc1ccccc1C(F)(F)C(F)(F)c1ccccc1C | 71.5 to 73.5 °C
21 | CC(C)(C)C1=C(c2cc3cc(O[Si](C)(C)C(C)(C)C)ccc3s2)OCC1(C)C | 88 to 89 °C
22 | CCC(CC)(COc1nn2nc(C)nc2cc1C)CS(N)(=O)=O | 221 to 222 °C
23 | CCN(CC)C(=O)Cc1ccc(NC(=O)/C=C/c2cnn(C)c2-c2ccc(F)cc2)cc1 | 175 to 176 °C
24 | Cc1cc(-c2noc3cc(O)ccc23)ccc1O | 233 to 235 °C
25 | CC(C)n1nc(-c2c(OCC(=O)N(C)C)nc(N)nc2-c2ccccc2)ccc1=O | 133 to 136 °C

Row | SMILES | melting point
26 | CCSC1(SC)CCC2C3CCC4=CC(=O)C=CC4(C)C3(F)C(OC(C)=O)CC21C (configuration not stated) | 140 to 142 °C
27 | CCn1cc2c(n1)c(N)nc1ccccc12 | 240 to 241 °C
28 | COc1ccc2[nH]c([S+]([O-])Cc3ncc(C)c(OC)c3C)nc2n1 (configuration not stated) | 224 to 226 °C
29 | CC(C)C1C(=O)N(c2ccc(N=Nc3ccc(N(C)C)cc3)cc2)C(=S)N1C (configuration not stated) | 164 to 169 °C
30 | CC(C)c1cccc(CC(=O)O)c1OCCCc1cn(-c2ccc(C(F)(F)F)cn2)nc1C(C)C | 108 to 109 °C
31 | Nc1cc(OCC(O)CO)nc(N)n1 (configuration not stated) | 160 °C
32 | CCCCN(CCCC)c1ccc(C=Cc2ccc(C=CC3=C(C#N)C(=C(C#N)C#N)OC3(C)C)s2)c(OC)c1 | 191 to 192 °C
33 | O=P1(c2ccc(Cl)cc2)c2ccccc2CN1c1ccccc1 (configuration not stated) | 180 to 182 °C
34 | CC(C)(C)OC(=O)N[C@H](Cc1ccccc1)C(=O)N1CCC[C@H]1C(=O)NCc1ccc(C#N)nc1 | 167 to 170 °C
35 | C=C(C)OC(=O)N1C(=O)[C@H](C)Nc2nc(Cl)ccc21 | 86 to 87 °C
36 | COc1ccc(Cc2nnc(-c3ccc4occc4c3)o2)cc1 | 108 to 109 °C
37 | Cc1noc(-c2ncn3c2CN(C)C(=O)c2ccccc2-3)n1 | 257 to 260 °C
38 | Cn1c(=O)[nH]c2nc(C(F)(F)F)n(Cc3ccccc3)c2c1=O | 211 to 213 °C
39 | CCCCCCC1C(=O)CCC1C(=O)O (configuration not stated) | 73 to 74 °C
40 | CCOC(=O)c1ccc2oc(CN3CCN(c4ccc(Cl)nn4)CC3)nc2c1 | 140 °C
41 | CCN(CCc1ccc(NS(C)(=O)=O)cc1)CCc1ccc(NS(C)(=O)=O)cc1 | < 60 °C
42 | CC(=O)Nc1ccc(-c2nc3ccccc3o2)cc1 | 214 to 215 °C
43 | O=C1CCC(c2ccc(-n3cnc4c3CCCC4)cc2)=NN1 | 296 to 297 °C
44 | O=C(Nc1ccc(CN2CCCCC2)cc1)C1=Cc2cc(-c3ccc(F)cc3)ccc2CC1 | 175 to 176 °C
45 | CCOC(=O)Cc1ccc(CCNC(=O)c2cc(C)ccc2OC)cc1 | 83 to 85 °C
46 | COC(=O)c1cncc(NC(=O)C(C)CSC(C)=O)c1 (configuration not stated) | 88 to 90 °C
47 | O=C1C2CC3CC1CC(c1cc(Br)ccc1O)(C3)C2 | 287 to 289 °C
48 | CCOC(=O)C(Cl)=NO | 75 to 80 °C
49 | Cc1nc(C[C@H]2OC[C@H](c3ccc(F)cc3)CO2)nc(C(=O)NCC(=O)O)c1O | 209 °C
50 | CN(C)C=Nc1ccc(I)cc1C#N | 53 to 55 °C

Second part, the molecule after the results:

Row | melting point | SMILES
51 | 81 to 83 °C | CCCCC(=O)Nc1ccc(N)cc1
52 | 117 to 121 °C | CCc1cccc(CC)c1NCc1n[nH]c(=S)n1C
53 | 167 to 169 °C | CN1CCN(c2ccc(S(=O)(=O)Oc3cccc([N+](=O)[O-])c3)cc2)C1=O
54 | 122 to 123 °C | O=C(Nc1cc(C2OCCCO2)ccc1O)c1ccccc1OCCCCc1ccccc1
55 | 54.5 to 57 °C | O=[N+]([O-])c1cccc(OCCCl)c1
56 | 190 °C | Oc1ccc(Oc2cc3ccc(Cl)cc3cn2)cc1
57 | 250 °C | CN(c1ccc(N)cc1)c1nc(=O)c2cccnc2s1
58 | 176 to 177 °C | Cc1oc(-c2ccccc2Cl)nc1CCOc1ccc(CC2SC(=O)NC2=O)cn1 (configuration not stated)
59 | 225 °C | CCC1=C(C(=O)OC)C(c2cccc([N+](=O)[O-])c2)c2c(nc(N3CCOCC3)nc2N2CCOCC2)N1 (configuration not stated)
60 | 108 to 109 °C | CS(=O)(=O)c1cc(OCc2ccccc2)cs1
61 | 90 to 95 °C | CCOC(=O)C1(C(=O)OCC)CC(c2ccc(Cl)cc2[N+](=O)[O-])=CN1C(C)=O
62 | 226 to 227 °C | COc1cc2c(cc1[N+](=O)[O-])-c1c(-c3cccs3)c3c(n1CC2)C(=O)N(C(C)(C)C)CC3
63 | 106 to 108 °C | CCC1Cc2cc(N)ccc2C1=O (configuration not stated)
64 | 125 to 127 °C | CN(C)Cc1cnn(C)c1-c1ccc(Cl)cc1C(O)c1ccccc1F (configuration not stated)
65 | 58.5 °C | CCC1(COCCCCCCOc2ccc(C(=O)O)cc2)COC1
66 | 178 to 181 °C | COc1cccc(C(F)(F)F)c1C(N)=O
67 | 52 to 53 °C | Cc1oc(-c2ccc(F)cc2)cc1CC(=O)O
68 | 54 to 55 °C | CCn1cc([N+](=O)[O-])cn1
69 | 128 to 132 °C | CCOC(=O)C1=C(C)NC(COC(N)=O)=C(C(=O)OCC)C1c1ccccc1[N+](=O)[O-] (configuration not stated)
70 | 155 °C | NC(=S)NC1Cc2ccccc2C1
71 | 246 °C | O=C1CCC2=C1C(c1cccc(Br)c1)C1=C(CCS1)N2 (configuration not stated)
72 | 97 to 101 °C | C#CCOc1ccc2ccc(=S)oc2c1
